From ChEMBL document CHEMBL1201862, “PubChem BioAssay data set” (2004)
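Step 1: Grow cells in 96-well plates. Step 2: Expose to compound for 48 hours at 5 concentrations. Step 3: Interpolate endpoints linearly; if unreached, use highest concentration. At the GI50, growth is halved.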 The source made the active and inactive calls. No stated cut-off is given here; in the data, active = GI50 up to about 1.1 µM and inactive = higher.

Legend:
Assay in all cases: NCI-60 cell line screen, 48 h
[1] = system: KM12
[2] = system: NCI-H522
[3] = system: HOP-92
[4] = system: M14
[5] = system: SR
[6] = system: SK-MEL-28
[7] = system: 786-0
[8] = system: COLO 205
[9] = system: DMS-273
[10] = system: SN12C
[11] = system: RXF 393
[12] = system: HT-29
[13] = system: SNB-75
[14] = system: MOLT-4
[15] = system: Malme-3M
[16] = system: LOX IMVI
[17] = system: SF-268
[18] = system: BT-549
[19] = system: Hs-578T
[20] = system: MDA-MB-435

| Compound | GI50 [1] | GI50 [2] | GI50 [3] | GI50 [4] | GI50 [5] | GI50 [6] | GI50 [7] | GI50 [8] | GI50 [9] | GI50 [10] | GI50 [11] | GI50 [12] | GI50 [13] | GI50 [14] | GI50 [15] | GI50 [16] | GI50 [17] | GI50 [18] | GI50 [19] | GI50 [20] |
| --- | --- | --- | --- | --- | --- | --- | --- | --- | --- | --- | --- | --- | --- | --- | --- | --- | --- | --- | --- | --- |
| c1ccc2c(c1)C1=NCCN1c1ccccc1-2 | 2.96 µM (inactive) | 1.45 µM (inactive) | 4.45 µM (inactive) | 4.01 µM (inactive) | 0.502 µM (active) | 3.91 µM (inactive) | 2.6 µM (inactive) | 1.38 µM (inactive) | 1.74 µM (inactive) | 2.45 µM (inactive) | 1.56 µM (inactive) | 2.41 µM (inactive) | 3.47 µM (inactive) | 1.85 µM (inactive) | 2.64 µM (inactive) | 2.95 µM (inactive) | 3.46 µM (inactive) |  |  |  |
| COc1ccc(S(=O)(=O)N/N=C/C(=O)O)cc1 | 557 µM (inactive) | 275 µM (inactive) | 364 µM (inactive) | 684 µM (inactive) | 202 µM (inactive) | 764 µM (inactive) | 397 µM (inactive) | 1010 µM (inactive) | 518 µM (inactive) | 475 µM (inactive) | 410 µM (inactive) | 336 µM (inactive) | 708 µM (inactive) | 193 µM (inactive) | 832 µM (inactive) | 248 µM (inactive) | 384 µM (inactive) | 284 µM (inactive) | 404 µM (inactive) | 407 µM (inactive) |
| O=P1(O)c2ccccc2Nc2cc(C(F)(F)F)ccc21 | > 100 µM (inactive) | > 100 µM (inactive) | > 100 µM (inactive) | > 100 µM (inactive) | > 100 µM (inactive) | > 100 µM (inactive) | > 100 µM (inactive) | > 100 µM (inactive) | > 100 µM (inactive) | > 100 µM (inactive) | > 100 µM (inactive) | > 100 µM (inactive) | > 100 µM (inactive) | > 100 µM (inactive) | > 100 µM (inactive) | > 100 µM (inactive) | > 100 µM (inactive) | > 100 µM (inactive) | > 100 µM (inactive) | > 100 µM (inactive) |
| O=C(O)C(CS)Nc1c2ccccc2nc2ccccc12 (centres undefined) | 59.6 µM (inactive) | 29.1 µM (inactive) | 49.7 µM (inactive) | 43.7 µM (inactive) | 36.3 µM (inactive) | > 100 µM (inactive) | > 100 µM (inactive) | 37.7 µM (inactive) | 34.6 µM (inactive) | 51.1 µM (inactive) | > 100 µM (inactive) | 46.6 µM (inactive) | > 100 µM (inactive) | 38.3 µM (inactive) | 54.3 µM (inactive) | 40.6 µM (inactive) | > 100 µM (inactive) |  |  |  |
